{"source": "paper PMC12998938", "about": "“Neutrophil store-operated Ca^2+ entry: A correctable biomarker of cystic fibrosis lung disease progression” (Journal of cystic fibrosis : official journal of the …, 2025)", "key": {"[1]": {"test_system": "SOCE/Orai1 in non-CF peripheral blood neutrophils", "assay": "Fluo-4 Ca2+ assay, global thapsigargin-stimulated Ca2+ response (SOCE), non-CF neutrophils", "assay_type": "cell-based, human", "details": "10 μM peptide, 3 h pre-treatment, 1 μM thapsigargin, N = 10 donors", "method": "Neutrophils were immediately isolated by negative selection from deidentified blood samples using an EasySep human neutrophil isolation kit (Stem Cell Technologies) as described. Cytosolic Ca^2+ was measured using Fluo-4 as described. Protein lysate from isolated blood neutrophils was characterized by liquid chromatography with tandem mass spectrometry (LC-MS/MS) as described. Degranulation products in media were quantified by Luminex assay using a custom Bio-Plex human kit (BioRad) per the manufacturer’s protocol […]. Detailed methods for all experiments and measurements are provided in an online data supplement.\n(§1) Isolated neutrophils were incubated with peptide or vehicle control for 3 h. For the final hour of treatment, cells were loaded with Fluo-4 direct (Thermofisher) for 45 min at 37°C and 15 min at room temperature as described.\nFluo-4 Ca^2+ assays. Isolated neutrophils were incubated with peptide or vehicle control for 3 h. For the final hour of treatment, cells were loaded with Fluo-4 direct (Thermofisher) for 45 min at 37°C and 15 min at room temperature. For global Ca^2+ measurements, baseline fluorescent readings were made for 2 min (1 read every 30 s) using a Tecan Infinite M1000 plate reader (ex 494 em 516 nm, bandwidth 5 nm) before thapsigargin (Sigma-Aldrich) was added and the change in emission was recorded for 10 min (1 read every 30 s). To isolate phases of store operated Ca^2+ entry, cells underwent 3 rounds of centrifugation and resuspension in Ca^2+-free Ringer’s solution to remove extracellular Ca^2+. Baseline fluo-4 fluorescence was read for 2 min before cell were stimulated with thapsigargin (Tocris). Reads continued for ~5 min before 1.2 mM Ca^2+ was added to the extracellular solution and SOCE was measured for ~10 mins. For analysis, all fluo-4 fluorescence reads are normalized to baseline."}, "[2]": {"test_system": "Ca2+ influx in non-CF neutrophils", "assay": "Fluo-4 Ca2+ influx across the plasma membrane, non-CF neutrophils", "assay_type": "cell-based, human", "method": "as §1\nFig. 3. ELD607 inhibits SOCE in non-CF and CF neutrophils. (A) and (B) Mean changes in fluo-4 fluorescence as a marker of cytoplasmic Ca^2+ levels in non-CF and CF neutrophils respectively before and after stimulation with 1 μM thapsigargin (Tg). Before stimulation, neutrophils were exposed to vehicle (0.1% DMSO in PBS), 10 μM ELD607 or scrambled peptide (control) for 3 h. N = 10 non-CF and 21 CF donors. Stats show ELD607 vs vehicle or scrambled peptide based on color. (C-F) Isolation of ER Ca^2+ release vs Ca^2+ influx across the plasma membrane in non-CF and CF Neutrophils. Neutrophils were stimulated with thapsigargin (1 μM) in the absence of extracellular Ca^2+ to allow the release of Ca^2+ stores to be measured. Extracellular Ca^2+ was then returned so that extracellular Ca^2+ influx could be measured. (C) Mean fold change in Fluo-4 fluorescence during ER store release in non-CF and CF neutrophils. […] (E) Mean fold change in fluo-4 fluorescence during Ca^2+ influx in non-CF and CF neutrophils. […]\nSOCE has 2 phases: release of Ca^2+ from ER stores and Ca^2+ influx from the extracellular space via Ca^2+ channels such as Orai1. […] Once the stores had emptied, extracellular Ca^2+ was reintroduced and Ca^2+ influx was measured (Fig. 3C–F).\nFluo-4 Ca^2+ assays. […] For global Ca^2+ measurements, baseline fluorescent readings were made for 2 min (1 read every 30 s) using a Tecan Infinite M1000 plate reader (ex 494 em 516 nm, bandwidth 5 nm) before thapsigargin (Sigma-Aldrich) was added and the change in emission was recorded for 10 min (1 read every 30 s). […] Baseline fluo-4 fluorescence was read for 2 min before cell were stimulated with thapsigargin (Tocris). Reads continued for ~5 min before 1.2 mM Ca^2+ was added to the extracellular solution and SOCE was measured for ~10 mins. For analysis, all fluo-4 fluorescence reads are normalized to baseline."}, "[3]": {"test_system": "Orai2", "assay": "SOCE in triple knockout HEK293T cells transfected with Orai2", "assay_type": "cell-based", "from_the_text": "(§2) We hypothesized that inhibiting SOCE in CF neutrophils may reduce the secretion of neutrophil elastase and other proteins associated with CF lung disease. To validate ELD607’s specificity for Orai1 over Orai2 and Orai3, we first evaluated ELD607 function in HEK293T cells that had Orai1, Orai2 and Orai3 stably knocked out. […] Next we evaluated ELD607’s ability to inhibit SOCE in non-CF and CF neutrophils.\n(§3) Supplemental figure 3. […] Dose responses of thapsigargin-induced changes in cytoplasmic Ca^2+ concentrations. These studies were performed in HEK293T where Orai1, Orai2 and Orai3 had been stably knocked down (triple knockout cells, TKO) or in TKO cells that were transiently transfected with Orai1, Orai2 or Orai3 as indicated. All data are from 7-9 replicates per data point from 3 separate experiments."}, "[4]": {"test_system": "Orai1", "assay": "SOCE in triple knockout HEK293T cells transfected with Orai1", "assay_type": "cell-based", "details": "TKO + Orai1, vs wild-type HEK293T; thapsigargin; dose response; 7-9 replicates; Orai1, 2, 3 plots differ p<0.001", "from_the_text": "as §2, §3"}}, "data": [{"sequence": "VHDIVNMLIRG [ELD607, size-optimized SPLUNC1/α6 peptidomimetic]", "values": [{"measurement": "inhibition of SOCE (global Ca2+ response)", "setting": "[1]", "result": "significantly inhibited SOCE regardless of genotype"}, {"measurement": "attenuation of Ca2+ influx", "setting": "[2]; non-CF neutrophils (Fig. 3)", "result": "markedly attenuated Ca^2+ influx"}, {"measurement": "IC50", "setting": "[2]; non-CF, 3 h pre-treatment, 1 μM thapsigargin, extracellular Ca2+ (1.2 mM) returned, 2 donors in triplicate, vs CF p<0.0001", "result": 340, "unit": "nM"}, {"measurement": "sensitivity of SOCE to ELD607", "setting": "[3]; TKO + Orai2, thapsigargin, dose response, 7-9 replicates", "result": "relatively insensitive"}, {"measurement": "specificity for Orai1: effect on Orai2", "setting": "[3]; discussion summary of supplemental figure 3", "result": "little effect on Orai2 and Orai3"}, {"measurement": "sensitivity of SOCE to ELD607", "setting": "[4]", "result": "restored the sensitivity to ELD607 seen in wild-type HEK293T cells"}]}]}
